Reference: PMC7122821, “Molecular basis of P[II] major human rotavirus VP8* domain recognition of histo-blood group antigens” (PLoS Pathogens, 2020)
Where “and” joins values, the source holds several entries; their conditions need not be identical. Equal entries are not always repeated. Entries after “also recorded” stand apart in the source; their conditions may differ.

Columns and labels:
P[6] VP8* (BM11596) = P[6] VP8* (BM11596) (Rotavirus A, UniProt D2DXN5); experiment: 2D 1H-15N HSQC NMR titration of P[6] VP8* with glycans; assay type: binding, human RV
Protocol: Chemical shift perturbations were followed by 2D ^1H-^15N HSQC for P[8] VP8*, P[8] mutants, and P[6] VP8* upon titration of each glycan ligand. NMR data were collected with samples in PBS buffer in 5-mm Shigemi NMR tubes on 600-MHz Bruker Avance III or 850-MHz Bruker Avance II NMR spectrometers equipped with conventional 5-mm HCN probes. Samples of 0.20 mM ^15N-labeled P[8] VP8* was titrated with LNDFH I at 0, 0.020, 0.040, 0.80, 1.00, 1.20, 1.40, 1.60, 2.00, 2.80, 3.60, 4.40, 5.00 mM. The same ratio of LNDFH I was titrated to each P[8] mutant as the titration of LNDFH I to wild type P[8]. Samples of 0.31 mM ^15N-labeled P[8] VP8* was titrated with Le^b tetra-saccharide at 0, 0.031, 0.15, 0.31, 0.62, 1.24, 2.49, 4.35, 5.60, 6.84, 7.78, 8.71, 9.33 mM. Samples of 0.24 mM ^15N-labeled P[6] VP8* was titrated with LNFP I at 0, 0.024, 0.12, 0.24, 0.48, 0.96, 1.93, 3.37, 4.34, 5.30, 6.03, 6.75, 7.23, 8.44 mM. Samples of 0.33 mM ^15N-labeled P[6] […] Spectra were process with NMRPipe software and analyzed with SPARKY [69]. The chemical shift changes upon titration was determined by the following formula [71]: Δδobs=1/2[δH2+(α·δN2)],δH=δHfree−δHbound,δN=δNfree−δNbound . […] Standard deviation σ of the Euclidean chemical shift change was calculated and threshold value was chosen from 1.5σ to 2.5σ for the VP8*-HBGA by balancing the specificity and sensitivity. […]

P[6] VP8* = experiment: STD NMR of glycans with P[6] VP8*; assay type: binding, human RV; conditions: 283 K
Protocol: (§1) All STD NMR spectra were acquired in Shigemi Tubes (Shigemi, USA) on 600-MHz Bruker Avance III and 850-MHz Bruker Avance II NMR spectrometers equipped with conventional 5-mm HCN probes at 283 K with pulse sequence STDDIFFESGP.3. The NMR samples for P[8] VP8* were prepared as 46 μM P[8] VP8* with 2.3 mM LNDFHI (1:50 protein: ligand ratio), and 33 μM P[8] VP8* with 1.86 mM Le^b tetra-saccharide (1:56 protein: ligand ratio). The NMR samples for P[6] VP* were prepared as 46 μM P[6] with 4.6 mM LNT (1:100 protein: ligand ratio), and 46 μM P[6] with 2.3 mM LNT (1:50 protein: ligand ratio). A control sample was prepared as 40 μM GST with 2.0 mM LNDFHI (1:50 protein: ligand ratio). […] The protein resonances were saturated with a cascade of Gaussian-shaped pulses with a duration of 50 ms, with a total saturation time of 2 s and 4 s. The on resonance was chosen to selectively saturate only the proteins for each sample. […] The STD amplification factors were determined by the equation (ISTD/IO) × molar ratio, where I0 are the intensities of the signals in the reference spectrum, and ISTD are intensities that obtained by subtracting the on-resonance spectrum from the off-resonance spectrum. The normalized STD amplification percentage for epitope mapping was determined by dividing by the largest STD amplification factor for each ligand.

P[8] VP8* (BM13851) = P[8] VP8* (BM13851) (Rotavirus A, UniProt P11193); experiment: 2D 1H-15N HSQC NMR titration of P[8] VP8* with glycans; assay type: binding, human RV; conditions: for Kd: read-out: dissociation constant (Kd), PBS buffer, global fitting
Protocol: Chemical shift perturbations were followed by 2D ^1H-^15N HSQC for P[8] VP8*, P[8] mutants, and P[6] VP8* upon titration of each glycan ligand. NMR data were collected with samples in PBS buffer in 5-mm Shigemi NMR tubes on 600-MHz Bruker Avance III or 850-MHz Bruker Avance II NMR spectrometers equipped with conventional 5-mm HCN probes. Samples of 0.20 mM ^15N-labeled P[8] VP8* was titrated with LNDFH I at 0, 0.020, 0.040, 0.80, 1.00, 1.20, 1.40, 1.60, 2.00, 2.80, 3.60, 4.40, 5.00 mM. The same ratio of LNDFH I was titrated to each P[8] mutant as the titration of LNDFH I to wild type P[8]. Samples of 0.31 mM ^15N-labeled P[8] VP8* was titrated with Le^b tetra-saccharide at 0, 0.031, 0.15, 0.31, 0.62, 1.24, 2.49, 4.35, 5.60, 6.84, 7.78, 8.71, 9.33 mM. Samples of 0.24 mM ^15N-labeled P[6] VP8* was titrated with LNFP I at 0, 0.024, 0.12, 0.24, 0.48, 0.96, 1.93, 3.37, 4.34, 5.30, 6.03, 6.75, 7.23, 8.44 mM. Samples of 0.33 mM ^15N-labeled P[6] VP8* was titrated with LNT at 0, 0.033, 0.17, 0.33, 0.69, 1.34, 2.67, 4.68, 6.01, 7.35, 8.35 mM. Spectra were process with NMRPipe software and analyzed with SPARKY [69]. The chemical shift changes upon titration was determined by the following formula [71]: Δδobs=1/2[δH2+(α·δN2)],δH=δHfree−δHbound,δN=δNfree−δNbound . Where δH free and δH bound are the backbone amide hydrogen chemical shifts in the absence and presence of ligand, δN free and δN bound are the amide nitrogen chemical shifts in the free and bound state. The value of Euclidean weighting correction factor α was set to 0.14 [72]. Standard deviation σ of the Euclidean chemical shift change was calculated and threshold value was chosen from 1.5σ to 2.5σ for the VP8*-HBGA by balancing the specificity and sensitivity. Amino acids with chemical shifts greater than the threshold value were used to calculate the dissociation constants. Dissociation constants were obtained by fitting the following equation: Δδobs=Δδmax{([P]t+[L]t+Kd)−[([P]t+[L]t+Kd)^2−4[P]t[L]t]^1/2}/2Pt . Where [P]t and [L]t represent the total concentrations of protein and ligand, Δδobs is the change in the observed chemical shift from the free state, Δδmax is the maximum chemical shift change on saturation, Kd represents the dissociation constant.

D79A-P[8] VP8* mutant = experiment: HSQC NMR titration of D79A-P[8] mutant with LNDFH I; assay type: binding, human RV; conditions: same ligand ratio as wild type P[8]
Protocol: (§2) The VP8* core fragments (amino acids 64 to 223) of the human RV P[8] (BM13851) and P[6] (BM11596) with an N-terminal glutathione S-transferase (GST) tag was overexpressed in Escherichia coli BL21 (DE3) cells as previously described. The P[8] T78A, D79A, K168A, R154A, H177A, and D186A mutations were generated through overlap-extension site mutagenesis, and the sequences were confirmed at the Center for Bioinformatics and Functional Genomics (CBFG) at Miami University. Cells were grown in 1L Luria broth (LB) medium supplemented with 100 μg mL^-1 ampicillin at 310 K. When the OD600 reached 0.8, 0.5 mM isopropyl-β-D-thiogalactopyranoside was added to the medium to induce protein expression. The cell pellet was harvested within 12 h after induction and re-suspended in the phosphate-buffered saline (PBS) buffer (140 mM NaCl, 2.7 mM KCl, 10 mM Na2HPO4, 1.8 mM KH2PO4, pH 7.3). […]
(§3) Chemical shift perturbations were followed by 2D ^1H-^15N HSQC for P[8] […] Spectra were process with NMRPipe software and analyzed with SPARKY [69]. The chemical shift changes upon titration was determined by the following formula [71]: Δδobs=1/2[δH2+(α·δN2)],δH=δHfree−δHbound,δN=δNfree−δNbound . […] Standard deviation σ of the Euclidean chemical shift change was calculated and threshold value was chosen from 1.5σ to 2.5σ for the VP8*-HBGA by balancing the specificity and sensitivity. […]

P[8] VP8* [1] = experiment: STD NMR of glycans with P[8] VP8*; assay type: binding, human RV; conditions: 283 K; 1:50 or 1:56 protein:ligand
Protocol: as §1

H177A-P[8] VP8* mutant = experiment: HSQC NMR titration of H177A-P[8] mutant with LNDFH I; assay type: binding, human RV; conditions: same ligand ratio as wild type P[8]
Protocol: as §2, §3

K168A-P[8] VP8* mutant = experiment: HSQC NMR titration of K168A-P[8] mutant with LNDFH I; assay type: binding, human RV; conditions: same ligand ratio as wild type P[8]
Protocol: as §2, §3

R154A-P[8] VP8* mutant = experiment: HSQC NMR titration of R154A-P[8] mutant with LNDFH I; assay type: binding, human RV; conditions: same ligand ratio as wild type P[8]
Protocol: as §2, §3

[2] = tested on: glutathione S-transferase (GST); experiment: STD NMR negative control with GST; assay type: binding; conditions: 40 μM GST with 2.0 mM ligand
Protocol: as §1

D186A-P[8] VP8* mutant = experiment: HSQC NMR titration of D186A-P[8] mutant with LNDFH I; assay type: binding, human RV; conditions: same ligand ratio as wild type P[8]
Protocol: as §2, §3

T78A-P[8] VP8* mutant = experiment: HSQC NMR titration of T78A-P[8] mutant with LNDFH I; assay type: binding, human RV; conditions: same ligand ratio as wild type P[8]
Protocol: as §2, §3

P[8] VP8* [3] = tested on: P[8] VP8*; parameters: method as in PMID 31226167; conditions: cited from earlier work

Row | Structure (SMILES) | Kd (P[6] VP8* (BM11596)) [mM] | binding to P[6] VP8* by STD NMR (P[6] VP8*) | Kd (P[8] VP8* (BM13851)) | binding to P[8] VP8* by STD NMR (P[8] VP8* [1]) | other results
1 | CC(=O)NC1C(OC2C(O)C(CO)OC(OC3C(CO)OC(O)C(O)C3O)C2O)OC(CO)C(O)C1OC1OC(CO)C(O)C(O)C1OC1OC(C)C(O)C(O)C1O (stereo not drawn) [LNFP I, lacto-N-fucopentaose I] | 13.6 ± 1.7 | bound | 23.5 mM | – | –
2 | CC(=O)NC1C(OC2C(O)C(CO)OC(OC3C(CO)OC(O)C(O)C3O)C2O)OC(CO)C(OC2OC(C)C(O)C(O)C2O)C1OC1OC(CO)C(O)C(O)C1OC1OC(C)C(O)C(O)C1O (stereo not drawn) [LNDFH I, lacto-N-difucohexaose I] | – | – | 6.3 mM and 6.29 mM | found to bind | binding to D79A-P[8] mutant (D79A-P[8] VP8* mutant): retained binding to the glycan; binding to H177A-P[8] mutant (H177A-P[8] VP8* mutant): significant loss of binding to the glycan; binding to K168A-P[8] mutant (K168A-P[8] VP8* mutant): retained binding to the glycan; binding to R154A-P[8] mutant (R154A-P[8] VP8* mutant): significant loss of binding to the glycan; STD NMR signal with GST (negative control) [2]: did not show significant signal intensities; binding to D186A-P[8] mutant (D186A-P[8] VP8* mutant): significant loss of binding to the glycan; binding to T78A-P[8] mutant (T78A-P[8] VP8* mutant): retained binding to the glycan
3 | CC(=O)N[C@H]1C(O)O[C@H](CO)[C@@H](O)[C@@H]1O[C@@H]1O[C@H](CO)[C@H](O)[C@H](O)[C@H]1O (stereo partly drawn) [lacto-N-biose] | – | – | – | – | affinity relative to H1 trisaccharide (P[8] VP8* [3]): two-fold weaker affinity
4 | CC(=O)NC1C(O)OC(CO)C(OC2OC(C)C(O)C(O)C2O)C1OC1OC(CO)C(O)C(O)C1OC1OC(C)C(O)C(O)C1O (stereo not drawn) [Le^b tetra-saccharide, Fucα1-2Galβ1–3[Fucα1–4]GlcNAc] | – | – | 20.3 ± 4.8 mM | found to bind | –
5 | CC(=O)NC1C(OC2C(O)C(CO)OC(OC3C(CO)OC(O)C(O)C3O)C2O)OC(CO)C(O)C1OC1OC(CO)C(O)C(O)C1O (stereo not drawn) [LNT, lacto-N-tetraose] | 2.5 ± 0.2 | bound | – | – | binding to P[8] VP8* in HSQC titration (P[8] VP8* (BM13851)): little binding signal; also recorded: did not recognize
